This is an account of results in patent US10035804B2, “Spirodiamine derivatives as aldosterone synthase inhibitors” (Hoffmann-La Roche Inc., priority 2014, dated 2018).

The EC50 is the concentration giving half of the maximal effect.

Test [1] relates to rat model of chronic kidney disease. Particulars: cited from earlier work; for cardiac and aortic medial hypertrophy / renal effects (albuminuria, azotemia, renovascular hypertrophy, glomerular injury, PAI-1 and osteopontin mRNA, tubulointerstitial fibrosis): angiotensin II and high salt treated rats.
The test system of test [2] is rats with experimental heart failure. Particulars: cited from earlier work.
For test [3], the target named is human CYP11B2 (Homo sapiens (Human), UniProt P19099). In words: G-402 cellular enzyme assay, human CYP11B2 (aldosterone release). The format is cell-based. Particulars: G-402 cells expressing human CYP11B2; 1 μM Deoxycorticosterone; aldosterone in supernatant after 16 h. From the text: (§1) Herein we identified the use of the G-402 cell line as a host cell to ectopically express (transiently or stably) enzymes of the CYP11 family. Specifically we developed stable G-402 cells expressing ectopically human CYP11B1, human CYP11B2, human CYP11A1, cynmolgus CYP11B1 or cynomolgus CYP11B2 enzyme activity. Importantly the identified cell line G-402 expresses co-factors (adrenodoxin and adrenodoxin reductase) important for the activity of the CYP11 family and no relevant enzyme activity of the CYP11 family (in comparison to H295R cells) was detected in these cells. Therefore the G-402 cell line is uniquely suited as a host cell for the ectopic expression of enzymes from the CYP11 family.
Sequence of human CYP11B2 (P19099 25-503): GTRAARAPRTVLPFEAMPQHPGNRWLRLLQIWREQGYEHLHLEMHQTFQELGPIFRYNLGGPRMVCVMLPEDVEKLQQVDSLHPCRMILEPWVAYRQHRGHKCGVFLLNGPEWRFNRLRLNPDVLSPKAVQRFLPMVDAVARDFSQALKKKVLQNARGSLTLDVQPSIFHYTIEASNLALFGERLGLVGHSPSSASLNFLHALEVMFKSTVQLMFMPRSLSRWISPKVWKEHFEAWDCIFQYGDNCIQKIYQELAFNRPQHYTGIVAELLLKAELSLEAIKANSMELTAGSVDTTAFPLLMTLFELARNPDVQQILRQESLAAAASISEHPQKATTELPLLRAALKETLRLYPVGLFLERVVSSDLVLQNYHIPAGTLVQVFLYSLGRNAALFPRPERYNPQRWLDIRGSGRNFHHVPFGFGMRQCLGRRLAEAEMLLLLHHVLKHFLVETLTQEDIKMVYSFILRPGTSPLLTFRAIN
(§2) G-402 cells can be obtained from ATCC (CRL-1440) and were originally derived from a renal leiomyoblastoma.
(§3) The expression plasmids contains the ORF for either human/cyno CYP11B1 or CYP11B2 under the control of a suitable promoter (CMV-promoter) and a suitable resistance marker (neomycin). Using standard techniques the expression plasmid is transfected into G-402 cells and these cells are then selected for expressing the given resistance markers. Individual cell-clones are then selected and assessed for displaying the desired enzymatic activity using 11-Deoxycorticosterone (Cyp11B2) or 11-Deoxycortisol (Cyp11B1) as a substrate.
(§4) G-402 cells expressing CYP11 constructs were established as described above and maintained in McCoy's 5a Medium Modified, ATCC Catalog No. 30-2007 containing 10% FCS and 400 μg/ml G418 (Geneticin) at 37° C. under an atmosphere of 5% CO2/95% air. Cellular enzyme assays were performed in DMEM/F12 medium containing 2.5% charcoal treated FCS and appropriate concentration of substrate (0.3-10 uM 11-Deoxycorticosterone, 11-Deoxycortisol or Corticosterone). For assaying enzymatic activity, cells were plated onto 96 well plates and incubated for 16 h. An aliquot of the supernatant is then transferred and analyzed for the concentration of the expected product (Aldosterone for CYP11B2; Cortisol for CYP11B1). The concentrations of these steroids can be determined using HTRF assays from CisBio analyzing either Aldosterone or Cortisol.
(§5) Inhibition of the release of produced steroids can be used as a measure of the respective enzyme inhibition by test compounds added during the cellular enzyme assay. The dose dependent inhibition of enzymatic activity by a compound is calculated by means of plotting added inhibitor concentrations (x-axes) vs. measured steroid/product level (y-axes). The inhibition is then calculated by fitting the following 4-parameter sigmoidal function (Morgan-Mercer-Flodin (MMF) model) to the raw data points using the least squares method:
(§6) [formula] wherein, A is the maximum y value, B is the EC50 factor determined using XLFit, C is the minimum y value and D is the slope value.
(§7) EC50 values for compounds claimed herein were tested with the G402-based assay system described. Cyp11B2 enzyme activity was tested in presence of 1 μM Deoxycorticosterone and variable amounts of inhibitors; Cyp11B1 enzyme activity was tested in presence of 1 μM Deoxycortisol and variable amounts of inhibitors.

The target of test [4] is human CYP11B1 (Homo sapiens (Human), UniProt P15538). In words: G-402 cellular enzyme assay, human CYP11B1 (cortisol release). The format is cell-based. Particulars: G-402 cells expressing human CYP11B1; 1 μM Deoxycortisol; cortisol in supernatant after 16 h.
Sequence of human CYP11B1 (P15538 25-503): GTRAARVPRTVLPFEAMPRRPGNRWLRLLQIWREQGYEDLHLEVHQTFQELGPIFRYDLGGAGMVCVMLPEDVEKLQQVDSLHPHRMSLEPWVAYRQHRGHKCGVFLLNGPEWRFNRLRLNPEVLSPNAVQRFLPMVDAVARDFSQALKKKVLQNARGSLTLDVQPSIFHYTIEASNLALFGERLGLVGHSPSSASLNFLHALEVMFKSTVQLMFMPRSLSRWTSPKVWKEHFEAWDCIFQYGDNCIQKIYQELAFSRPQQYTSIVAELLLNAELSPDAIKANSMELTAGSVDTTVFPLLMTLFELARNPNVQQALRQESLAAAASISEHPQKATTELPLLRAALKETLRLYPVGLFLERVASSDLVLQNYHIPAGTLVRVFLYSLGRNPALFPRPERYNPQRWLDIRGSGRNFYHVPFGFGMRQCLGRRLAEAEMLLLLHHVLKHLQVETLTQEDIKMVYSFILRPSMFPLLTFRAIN
Source text: as §1, §2, §3, §4, §5, §6, §7

For test [5], the system named is patients with primary aldosteronism. Particulars: oral; cited from earlier work.

Take `N#Cc1ccc([C@H]2CCCc3cncn32)cc1` [FAD286]: in test [1], the “cardiac and aortic medial hypertrophy” value is recorded as “attenuated”; the “renal effects (albuminuria, azotemia, renovascular hypertrophy, glomerular injury, PAI-1 and osteopontin mRNA, tubulointerstitial fibrosis)” value was “prevented these renal effects”. Besides, the plasma aldosterone result in test [1] (following 4 weeks of treatment) is recorded as “reduced”. For the same molecule, in test [2], the “blood pressure and cardiovascular function and structure” value is “improved”; the “kidney function and morphology” value is on record as “improve”.

Consider `Cn1cncc1C(=O)N1CC2(C1)CN(c1cncc(N3C(=O)c4ccc(Cl)cc4C3(C)C)c1)C2` [Example 6, 5-Chloro-3,3-dimethyl-2-[5-[2-(3-methylimidazole-4-carbonyl)-2,6-diazaspiro[3.3]heptan-6-yl]-3-pyridyl]isoindolin-1-one], for which the EC50 in test [3] stood at 0.0117 nM; in test [4], 7.94 nM.

For `Cc1ccncc1C(=O)N1CC2(C1)CN(c1cncc(N3C(=O)c4ccc(C#N)cc4C3(C)C)c1)C2` [Example 14, 3,3-Dimethyl-2-[5-[2-(4-methylpyridine-3-carbonyl)-2,6-diazaspiro[3.3]heptan-6-yl]-3-pyridyl]-1-oxo-isoindoline-5-carbonitrile], the EC50 worked out at 0.0407 nM in test [3] and 21 nM in test [4].

On to `COc1ccc2c(n1)C(C)(C)N(c1cncc(N3CC4(CN(C(=O)c5cnn(C)c5)C4)C3)c1)C2=O` [Example 15, 2-Methoxy-7,7-dimethyl-6-[5-[2-(1-methylpyrazole-4-carbonyl)-2,6-diazaspiro[3.3]heptan-6-yl]-3-pyridyl]pyrrolo[3,4-b]pyridin-5-one], for which the EC50 in test [3] stood at 0.0205 nM; in test [4], 18.9 nM.

Consider `Cc1ncncc1C(=O)N1CC2(C1)CN(c1cncc(N3C(=O)c4ccc(Cl)cc4C3(C)C)c1)C2` [Example 29, 5-Chloro-3,3-dimethyl-2-[5-[2-(4-methylpyrimidine-5-carbonyl)-2,6-diazaspiro[3.3]heptan-6-yl]-3-pyridyl]isoindolin-1-one], for which the EC50 in test [3] was 0.0748 nM; in test [4], greater than 30 nM.

As to `Cc1ncc(Cl)c(C(=O)N2CC3(C2)CN(c2cncc(N4C(=O)c5ccc(Cl)cc5C4(C)C)c2)C3)n1` [Example 47, 5-Chloro-2-[5-[2-(5-chloro-2-methyl-pyrimidine-4-carbonyl)-2,6-diazaspiro[3.3]heptan-6-yl]-3-pyridyl]-3,3-dimethyl-isoindolin-1-one], the EC50 in test [3] was 0.504 nM; in test [4], 8.31 nM.

Consider `Cn1cc(C(=O)N2CC3(C2)CN(c2cncc(N4CCc5cc(Cl)ccc5C4=O)c2)C3)cn1` [Example 53, 6-Chloro-2-[5-[2-(1-methylpyrazole-4-carbonyl)-2,6-diazaspiro[3.3]heptan-6-yl]-3-pyridyl]-3,4-dihydroisoquinolin-1-one], for which the EC50 in test [3] came to 0.0459 nM; in test [4], 14.6 nM.

For `CC1(C)c2cc(Cl)ccc2C(=O)N1c1cncc(N2CC3(CN(C(=O)c4cnccn4)C3)C2)c1` [Example 38, 5-Chloro-3,3-dimethyl-2-[5-[2-(pyrazine-2-carbonyl)-2,6-diazaspiro[3.3]heptan-6-yl]-3-pyridyl]isoindolin-1-one], the figures for the EC50 in test [3] and in test [4] were 0.0268 nM and 2.32 nM, respectively.

For the molecule `Cn1cncc1C(=O)N1CC2(C1)CN(c1cncc(N3C(=O)c4ccc(C#N)cc4C3(C)C)c1)C2` [Example 13, 3,3-Dimethyl-2-[5-[2-(3-methylimidazole-4-carbonyl)-2,6-diazaspiro[3.3]heptan-6-yl]-3-pyridyl]-1-oxo-isoindoline-5-carbonitrile], the values for the EC50 in test [3] and in test [4] were 0.0278 nM and 26.4 nM, respectively.

As to `Cn1nccc1C(=O)N1CC2(C1)CN(c1cncc(N3C(=O)c4ccc(Cl)cc4C34CC4)c1)C2` [Example 21, 5′-Chloro-2′-[5-[2-(2-methylpyrazole-3-carbonyl)-2,6-diazaspiro[3.3]heptan-6-yl]-3-pyridyl]spiro[cyclopropane-1,3′-isoindoline]-1′-one], the results for the EC50 in test [3] and in test [4] were 0.293 nM and greater than 30 nM, respectively.

For the molecule `Cn1ccnc1C(=O)N1CC2(C1)CN(c1cncc(N3C(=O)c4ccc(Cl)cc4C3(C)C)c1)C2` [Example 4, 5-Chloro-3,3-dimethyl-2-[5-[2-(1-methylimidazole-2-carbonyl)-2,6-diazaspiro[3.3]heptan-6-yl]-3-pyridyl]isoindolin-1-one], the values for the EC50 in test [3] and in test [4] were 0.0099 nM and 1.1 nM, respectively.

As to `Cc1ncnc(C)c1C(=O)N1CC2(C1)CN(c1cncc(N3C(=O)c4ccc(Cl)cc4C3(C)C)c1)C2` [Example 48, 5-Chloro-2-[5-[2-(4,6-dimethylpyrimidine-5-carbonyl)-2,6-diazaspiro[3.3]heptan-6-yl]-3-pyridyl]-3,3-dimethyl-isoindolin-1-one], the EC50 in test [3] is 0.239 nM; in test [4], greater than 30 nM.

`N#Cc1ccc([C@H]2CCc3cncn32)c(F)c1` [LC1699]: in test [5], the blood pressure entry is “mildly decreased”; the circulating aldosterone levels result is “significantly lower”; the hypokalemia entry was “corrected”; the “selectivity (effects on the glucocorticoid axis, cortisol synthesis)” value is given as “poor selectivity”.

Consider `Cc1ncoc1C(=O)N1CC2(C1)CN(c1cncc(N3C(=O)c4ccc(Cl)cc4C3(C)C)c1)C2` [Example 41, 5-Chloro-3,3-dimethyl-2-[5-[2-(4-methyloxazole-5-carbonyl)-2,6-diazaspiro[3.3]heptan-6-yl]-3-pyridyl]isoindolin-1-one], for which the EC50 worked out at 0.109 nM in test [3] and 28.4 nM in test [4].

Consider `CC1(C)c2cc(Cl)ccc2C(=O)N1c1cncc(N2CC3(CN(C(=O)c4cocn4)C3)C2)c1` [Example 42, 5-Chloro-3,3-dimethyl-2-[5-[2-(oxazole-4-carbonyl)-2,6-diazaspiro[3.3]heptan-6-yl]-3-pyridyl]isoindolin-1-one], for which the EC50 amounted to 0.0102 nM in test [3] and 1.05 nM in test [4].

With `Cc1nc(C)c(C(=O)N2CC3(C2)CN(c2cncc(N4C(=O)c5ccc(Cl)cc5C4(C)C)c2)C3)o1` [Example 44, 5-Chloro-2-[5-[2-(2,4-dimethyloxazole-5-carbonyl)-2,6-diazaspiro[3.3]heptan-6-yl]-3-pyridyl]-3,3-dimethyl-isoindolin-1-one], the EC50 in test [3] stood at 0.0907 nM; in test [4], 18 nM.

Consider `Cc1cc(C(=O)N2CC3(C2)CN(c2cncc(N4C(=O)c5ccc(Cl)cc5C4(C)C)c2)C3)n(C)n1` [Example 31, 5-Chloro-2-[5-[2-(2,5-dimethylpyrazole-3-carbonyl)-2,6-diazaspiro[3.3]heptan-6-yl]-3-pyridyl]-3,3-dimethyl-isoindolin-1-one], for which the concentration giving a half-maximal response (EC50) in test [3] turned out to be 0.154 nM; in test [4], 6.43 nM.

Take `CC(=O)S[C@@H]1CC2=CC(=O)CC[C@]2(C)[C@H]2CC[C@@]3(C)[C@@H](CC[C@@]34CCC(=O)O4)[C@H]12` [spironolactone]: in test [1], the “cardiac and aortic medial hypertrophy” value was “attenuated”; the “renal effects (albuminuria, azotemia, renovascular hypertrophy, glomerular injury, PAI-1 and osteopontin mRNA, tubulointerstitial fibrosis)” value is “prevented these renal effects”. Besides, the aldosterone result in test [1] (at 4 and 8 weeks of treatment) is “increased”. The “angiotensin II and salt-stimulated PAI-1 mRNA expression” value in test [1] (in the aorta and the heart) was “enhanced”.
